Experimental data taken from patent publication US6992169B2, “Carrier based drug delivery system” (Cyclacel Limited, priority 1998, dated 2006).

Legend:
[1] = system: HT29; assay: In vitro cytotoxic activity, inhibition of cell proliferation, ATP bioluminescence (ViaLight); assay type: cell-based, human
Description: (§1) This compound (abbreviated ‘MTX-Pen’ in the tables below) was evaluated for its ability to inhibit cell proliferation of normal (immortalised) human cells (HaCaT cells, Tables 1 & 2) and a human colorectal cancer cell line (HT29, Table 3).
(§2) Assay procedure—Cells were seeded into 96-well plates at 2,500 cells/well in DMEM with 10% FCS and antibiotics. After overnight incubation, test compound dilutions in cell medium were prepared and were added to the cells. Samples were taken 1, 2, 3, and 4 days after compound addition. Nucleotide Releasing Reagent (LumiTech ViaLight kit) was added in order to lyse the cells and release ATP. After incubation at room temperature (5 min), the mixtures were transferred to opaque 96-well plates and stored at −20° C. until analysis. After loading plates into a luminometer (Lucy 1, Labtech International), ATP Monitoring Reagent (20 μL/well, LumiTech ViaLight kit) was added to each well successively and light intensity was measured immediately. Six readings were taken per sample. Each assay point was established using six replicates and appropriate controls. […] Statistically significant results in the tables below are printed in bold face.
(§3) This compound (abbreviated ‘MTX-Pen’ in tables below) was evaluated for its ability to inhibit cell proliferation of normal (immortalised) human cells (HaCaT cells, Tables 1 & 2) and a human colorectal cancer cell line (HT29, Table 3).
(§4) Assay procedure—Cells were seeded into 96-well plates at 2,500 cells/well in DMEM with 10% foetal calf serum and antibiotics. After overnight incubation, test compound dilutions in cell medium were prepared and were added to the cells. Samples were taken 1, 2, 3, and 4 days after compound addition. Nucleotide Releasing Reagent (LumiTech ViaLight kit) was added in order to lyse the cells and release ATP. After incubation at room temperature (5 min), the mixtures were transferred to opaque 96-well plates and stored at −20° C. until analysis. After loading plates into a luminometer (Lucy 1, Labtech International), ATP Monitoring Reagent ([…], LumiTech ViaLight kit) was added to each well successively and light intensity was measured immediately. Six readings were taken per sample. Each assay point was established using six replicates and appropriate controls.

[2] = system: HaCaT cells; assay: as above; assay type: cell-based, human
Description: as §1, §2, §3, §4

CN(Cc1cnc2nc(N)nc(N)c2n1)c1ccc(C(=O)N[C@@H](CCC(=O)O)C(=O)O)cc1 [MTX, methotrexate]
% Cell Death ([1]; Table 3, HT 29, Dose 0.1 μM, Day 1): 6% | % Cell Death ([1]; Table 3, HT 29, Dose 0.1 μM, Day 2): −17% | % Cell Death ([1]; Table 3, HT 29, Dose 0.1 μM, Day 3): 52% | % Cell Death ([1]; Table 3, HT 29, Dose 0.1 μM, Day 4): 84% | % Cell Death ([1]; Table 3, HT 29, Dose 0.2 μM, Day 1): 10% | % Cell Death ([1]; Table 3, HT 29, Dose 0.2 μM, Day 2): −5% | % Cell Death ([1]; Table 3, HT 29, Dose 0.2 μM, Day 3): 54% | % Cell Death ([1]; Table 3, HT 29, Dose 0.2 μM, Day 4): 85% | % Cell Death ([1]; Table 3, HT 29, Dose 0.5 μM, Day 1): 15% | % Cell Death ([1]; Table 3, HT 29, Dose 0.5 μM, Day 2): −12% | % Cell Death ([1]; Table 3, HT 29, Dose 0.5 μM, Day 3): 52% | % Cell Death ([1]; Table 3, HT 29, Dose 0.5 μM, Day 4): 88% | % Cell Death ([1]; Table 3, HT 29, Dose 1.5 μM, Day 1): 17% | % Cell Death ([1]; Table 3, HT 29, Dose 1.5 μM, Day 2): −5% | % Cell Death ([1]; Table 3, HT 29, Dose 1.5 μM, Day 3): 48% | % Cell Death ([1]; Table 3, HT 29, Dose 1.5 μM, Day 4): 84% | % Cell Death ([1]; Table 3, HT 29, Dose 4.4 μM, Day 1): −14% | % Cell Death ([1]; Table 3, HT 29, Dose 4.4 μM, Day 2): −4% | % Cell Death ([1]; Table 3, HT 29, Dose 4.4 μM, Day 3): 58% | % Cell Death ([1]; Table 3, HT 29, Dose 4.4 μM, Day 4): 86% | % Cell Death ([2]; Table 1, HaCaT, Dose 0.2 μM, Day 1): 7% | % Cell Death ([2]; Table 1, HaCaT, Dose 0.2 μM, Day 2): 11% | % Cell Death ([2]; Table 1, HaCaT, Dose 0.2 μM, Day 3): 79% | % Cell Death ([2]; Table 1, HaCaT, Dose 0.2 μM, Day 4): 93% | % Cell Death ([2]; Table 1, HaCaT, Dose 0.5 μM, Day 1): −4% | % Cell Death ([2]; Table 1, HaCaT, Dose 0.5 μM, Day 2): 31% | % Cell Death ([2]; Table 1, HaCaT, Dose 0.5 μM, Day 3): 75% | % Cell Death ([2]; Table 1, HaCaT, Dose 0.5 μM, Day 4): 93% | % Cell Death ([2]; Table 1, HaCaT, Dose 1.5 μM, Day 1): 13% | % Cell Death ([2]; Table 1, HaCaT, Dose 1.5 μM, Day 2): 31% | % Cell Death ([2]; Table 1, HaCaT, Dose 1.5 μM, Day 3): 77% | % Cell Death ([2]; Table 1, HaCaT, Dose 1.5 μM, Day 4): 94% | % Cell Death ([2]; Table 1, HaCaT, Dose 4.4 μM, Day 1): 4% | % Cell Death ([2]; Table 1, HaCaT, Dose 4.4 μM, Day 2): 24% | % Cell Death ([2]; Table 1, HaCaT, Dose 4.4 μM, Day 3): 77% | % Cell Death ([2]; Table 1, HaCaT, Dose 4.4 μM, Day 4): 93% | % Cell Death ([2]; Table 1, HaCaT, Dose 13.3 μM, Day 1): 22% | % Cell Death ([2]; Table 1, HaCaT, Dose 13.3 μM, Day 2): 35% | % Cell Death ([2]; Table 1, HaCaT, Dose 13.3 μM, Day 3): 82% | % Cell Death ([2]; Table 1, HaCaT, Dose 13.3 μM, Day 4): 92% | % Cell Death ([2]; Table 1, HaCaT, Dose 40.0 μM, Day 1): 4% | % Cell Death ([2]; Table 1, HaCaT, Dose 40.0 μM, Day 2): 15% | % Cell Death ([2]; Table 1, HaCaT, Dose 40.0 μM, Day 3): 79% | % Cell Death ([2]; Table 1, HaCaT, Dose 40.0 μM, Day 4): 92% | % Cell Death ([2]; Table 2, HaCaT, Dose 0.1 μM, Day 1): 19% | % Cell Death ([2]; Table 2, HaCaT, Dose 0.1 μM, Day 2): 7% | % Cell Death ([2]; Table 2, HaCaT, Dose 0.1 μM, Day 3): 45% | % Cell Death ([2]; Table 2, HaCaT, Dose 0.1 μM, Day 4): 65% | % Cell Death ([2]; Table 2, HaCaT, Dose 0.2 μM, Day 1): 3% | % Cell Death ([2]; Table 2, HaCaT, Dose 0.2 μM, Day 2): 41% | % Cell Death ([2]; Table 2, HaCaT, Dose 0.2 μM, Day 3): 94% | % Cell Death ([2]; Table 2, HaCaT, Dose 0.2 μM, Day 4): 86% | % Cell Death ([2]; Table 2, HaCaT, Dose 0.5 μM, Day 1): 0% | % Cell Death ([2]; Table 2, HaCaT, Dose 0.5 μM, Day 2): 59% | % Cell Death ([2]; Table 2, HaCaT, Dose 0.5 μM, Day 3): 96% | % Cell Death ([2]; Table 2, HaCaT, Dose 0.5 μM, Day 4): 91% | % Cell Death ([2]; Table 2, HaCaT, Dose 1.5 μM, Day 1): 14% | % Cell Death ([2]; Table 2, HaCaT, Dose 1.5 μM, Day 2): 67% | % Cell Death ([2]; Table 2, HaCaT, Dose 1.5 μM, Day 3): 96% | % Cell Death ([2]; Table 2, HaCaT, Dose 1.5 μM, Day 4): 91% | % Cell Death ([2]; Table 2, HaCaT, Dose 4.4 μM, Day 1): 21% | % Cell Death ([2]; Table 2, HaCaT, Dose 4.4 μM, Day 2): 70% | % Cell Death ([2]; Table 2, HaCaT, Dose 4.4 μM, Day 3): 97% | % Cell Death ([2]; Table 2, HaCaT, Dose 4.4 μM, Day 4): 92%
